From patent publication US20250129021A1, “SMALL MOLECULE PROTEIN SYNTHESIS MODULATORS” (Interdict Bio, Inc., priority 2023, published 2025)

Tests used:
Type in all cases: biochemical
NFKB1 = test: In vitro transcription-translation (IVTT) assay, NFKB1 reporter; details: HeLa S3 lysate, sfGFP/mCherry ratio
Protocol: In vitro transcription-translation assay setup: Each assay includes a master mix containing lysate and shared components, a 96-well plate containing compound titrations for testing, a 96-well DNA plate with reporter constructs to be tested, 96-well skirted PCR plates, and 96-well flat-bottom, black, fluorescent assay plates. Reaction materials setup: (A) Master mix—15 mL conical tube (3 mL of HeLa S3 Lysate described above; 0.6 mL of ThermoFisher Accessory Proteins (#88882); 1.2 ml of ThermoFisher Reaction Mix (#88882); 0.54 mL of nuclease-free Water); (B) 96-Well Master Mix+Compound Plate (Half-log dilutions (30 μM−0.1 μM) of 4 compounds of interest are prepared in 100% DMSO); 96-Well DNA Plate (Five DNA constructs are plated into single columns within the plate. Row 1 of the column contains nuclease free H2O, all other wells contain 110 ng/μL plasmid DNA). Reactions are started by mixing 155 μL of master mix and 3.5 μL of compound serial dilutions, then 9.1 μL of master mix+compound mixture is aliquoted across 5 96-well plates. Reactions begin with final addition of 2 μL of DNA for a 11.1 μL reaction volume in each well. The entire plate is sealed, and incubated for 2 hrs at 30° C. After 2 hrs, quench the assay using 45 μL of PBS, and transfer 50 μL to a flat-bottom black microplate Quantify the sfGFP and mCherry signals from each well on each plate, taking 3 reads of each plate, and perform data analysis below.
In vitro transcription-translation assay data analysis: Each plate is read three times in channels for both sfGFP and mCherry signals. The average signal across these 3 reads is then calculated for further analysis. Control wells containing no DNA reporter are subtracted from reporter wells in the same column to remove auto-fluorescence of the lysate. Then, the ratio of sfGFP/mCherry is calculated per well, and these ratios are averaged across the triplicate experiments on the same plate. Finally, the ratio of each titration concentration is normalized to the no drug control to create the normalized stalling metric. The error on this measurement is determined by propagating error through the averaging and normalization steps. Values are plotted and fit for IC50 determination for each test sequence and titration of compound.

MYC = test: In vitro transcription-translation (IVTT) assay, MYC reporter; details: IVTT assay, HeLa S3 lysate, MYC reporter, normalized sfGFP/mCherry ratio; half-log dilutions 30 μM-0.1 μM, 2 hrs at 30° C.
In short: (§1)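 Reporter: mCherry, P2A, then 3×FLAG-target peptide-sfGFP fusion, IRES-initiated; HeLa S3 lysate IVTT; cpd dilutions 30 μM−0.1 μM half-log in 100% DMSO (dilution-plate conc); DNA added last; 2 h, 30° C; PBS quench.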

CCND1 = test: In vitro transcription-translation (IVTT) assay, CCND1 reporter; details: IVTT assay, HeLa S3 lysate, sfGFP/mCherry ratio
In short: as §1

MCL-1 = test: In vitro transcription-translation (IVTT) assay, MCL-1 reporter; details: IVTT assay, HeLa S3 lysate, sfGFP/mCherry ratio; read-out: MCL1 IC50
In short: as §1

CCNTB1 = test: In vitro transcription-translation (IVTT) assay, CCNTB1 reporter; details: HeLa S3 lysate, sfGFP/mCherry ratio
In short: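 Cell-free HeLa S3 lysate reactions expressing sfGFP/mCherry reporter constructs ran 2 h at 30 °C with compound from half-log DMSO series (30 μM–0.1 μM as prepared), then were quenched with PBS. No-DNA background was subtracted, and the sfGFP/mCherry ratio was normalized to the no-drug control and fit for IC50.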

Compound | IC50 (NFKB1) | IC50 (CCND1) | IC50 (MCL-1) | IC50 (CCNTB1) | IC50 (MYC)
O=C(NCC[C@@H]1CCCN1)O[C@@H]1[C@@H](O)CN[C@@H]1Cc1ccc(-c2ccns2)cc1 [V192331, (2R,3S,4S)-4-hydroxy-2-{[4-(1,2-thiazol-5-yl)phenyl]methyl}pyrrolidin-3-yl N-{2-[(2S)-pyrrolidin-2-yl]ethyl}carbamate] | < 10 µM | < 10 µM | – | – | < 10 µM
C[C@H]1CC[C@@H](CCNC(=O)O[C@@H]2[C@@H](O)CN[C@@H]2Cc2ccc(-c3cnco3)cc2)N1 [V192850, (2R,3S,4S)-4-hydroxy-2-{[4-(1,3-oxazol-5-yl)phenyl]methyl}pyrrolidin-3-yl N-{2-[(2S,5S)-5-methylpyrrolidin-2-yl]ethyl}carbamate] | < 10 µM | < 10 µM | – | – | < 10 µM
O=C(NCC[C@@H]1CCCN1)O[C@@H]1[C@@H](O)CN[C@@H]1Cc1ccc(-c2cnco2)c(F)c1 [V192903, (2R,3S,4S)-2-{[3-fluoro-4-(1,3-oxazol-5-yl)phenyl]methyl}-4-hydroxypyrrolidin-3-yl N-{2-[(2S)-pyrrolidin-2-yl]ethyl}carbamate] | < 10 µM | 10 to 20 µM | – | – | < 10 µM
O=C(NCC[C@H]1CCNCC1(F)F)O[C@@H]1[C@@H](O)CN[C@@H]1Cc1ccc(-c2cnco2)cc1 [V192894, (2R,3S,4S)-4-hydroxy-2-{[4-(1,3-oxazol-5-yl)phenyl]methyl}pyrrolidin-3-yl N-{2-[(4R)-3,3-difluoropiperidin-4-yl]ethyl}carbamate] | < 10 µM | < 10 µM | – | – | < 10 µM
CNC1(c2cccc(CNC(=O)O[C@@H]3[C@@H](O)CN[C@@H]3Cc3ccc(-c4cnco4)cc3)c2)CC1 [V192289, (2R,3S,4S)-4-hydroxy-2-{[4-(1,3-oxazol-5-yl)phenyl]methyl}pyrrolidin-3-yl N-({3-[1-(methylamino)cyclopropyl]phenyl}methyl)carbamate] | < 10 µM | < 10 µM | – | – | < 10 µM
O=C(NCc1cnsc1)O[C@@H]1[C@@H](O)CN[C@@H]1Cc1ccc(-c2cnco2)cc1 [V192110, (2R,3S,4S)-4-hydroxy-2-(4-(oxazol-5-yl)benzyl)pyrrolidin-3-yl (isothiazol-4-ylmethyl)carbamate] | < 10 µM | < 10 µM | – | – | < 10 µM
COc1ccc(C[C@H]2NC[C@H](O)[C@H]2OC(=O)NCc2ccnc(N3CC4(CCC4)C3)c2)cc1 [V192068, (2R,3S,4S)-4-hydroxy-2-[(4-methoxyphenyl)methyl]pyrrolidin-3-yl N-[(2-{2-azaspiro[3.3]heptan-2-yl}pyridin-4-yl)methyl]carbamate] | – | 10 to 20 µM | < 10 µM | < 10 µM | < 10 µM
O=C(NCc1ccc2c(c1)CCNC2)O[C@@H]1[C@@H](O)CN[C@@H]1Cc1ccc(-c2ccc(C(F)(F)F)cc2)cc1 [V192058, (2R,3S,4S)-4-hydroxy-2-{[4′-(trifluoromethyl)-[1,1′-biphenyl]-4-yl]methyl}pyrrolidin-3-yl N-(1,2,3,4-tetrahydroisoquinolin-6-ylmethyl)carbamate] | – | > 30 µM | > 30 µM | 20 to 30 µM | > 30 µM
O=C(NCC(F)F)O[C@@H]1[C@@H](O)CN[C@@H]1Cc1ccc(-c2cnco2)cc1 [V192264, (2R,3S,4S)-4-hydroxy-2-(4-(oxazol-5-yl)benzyl)pyrrolidin-3-yl (2,2-difluoroethyl)carbamate] | – | < 10 µM | < 10 µM | < 10 µM | < 10 µM
O=C(NCC[C@@H]1CCCN1)O[C@@H]1[C@@H](O)CN[C@@H]1Cc1ccc(-c2cncs2)cc1 [V192113, (2R,3S,4S)-4-hydroxy-2-{[4-(1,3-thiazol-5-yl)phenyl]methyl}pyrrolidin-3-yl N-{2-[(2S)-pyrrolidin-2-yl]ethyl}carbamate] | – | < 10 µM | < 10 µM | < 10 µM | < 10 µM
O=C(NCc1cccc(F)c1)O[C@@H]1[C@@H](O)CN[C@@H]1Cc1ccc(-c2cn3ccccc3n2)cc1 [V192139] | – | < 10 µM | < 10 µM | < 10 µM | < 10 µM

More lines, main results first:

IC50 (NFKB1) | IC50 (CCND1) | IC50 (MCL-1) | IC50 (CCNTB1) | Compound | IC50 (MYC)
< 10 µM | < 10 µM | – | – | O=C(NCc1cccc(F)c1)O[C@@H]1[C@@H](O)CN[C@@H]1Cc1ccc(C(F)(F)F)cc1 [V192896, (2R,3S,4S)-4-hydroxy-2-{[4-(trifluoromethyl)phenyl]methyl}pyrrolidin-3-yl N-[(3-fluorophenyl)methyl]carbamate] | < 10 µM
< 10 µM | < 10 µM | – | – | (2R,3S,4S)-2-(2,1,3-benzoxadiazol-5-ylmethyl)-4-hydroxypyrrolidin-3-ylN-[(3-fluorophenyl)methyl]carbamate [V192383] | < 10 µM
< 10 µM | < 10 µM | – | – | O=C(NCCC12CNC(C1)C2)O[C@@H]1[C@@H](O)CN[C@@H]1Cc1ccc(-c2cnco2)cc1 [V192849, (2R,3S,4S)-4-hydroxy-2-{[4-(1,3-oxazol-5-yl)phenyl]methyl}pyrrolidin-3-yl N-(2-{2-azabicyclo[2.1.1]hexan-4-yl}ethyl)carbamate] | < 10 µM
< 10 µM | < 10 µM | – | – | O=C(NCC[C@@H]1C[C@H](F)CN1)O[C@@H]1[C@@H](O)CN[C@@H]1Cc1ccc(-c2cnco2)cc1 [V192917, (2R,3S,4S)-4-hydroxy-2-{[4-(1,3-oxazol-5-yl)phenyl]methyl}pyrrolidin-3-yl N-{2-[(2R,4S)-4-fluoropyrrolidin-2-yl]ethyl}carbamate] | < 10 µM
< 10 µM | < 10 µM | – | – | O=C(NCC[C@@H]1CCCN1)O[C@@H]1[C@@H](O)CN[C@@H]1Cc1ccc([N+](=O)[O-])cc1 [V192359, (2R,3S,4S)-4-hydroxy-2-[(4-nitrophenyl)methyl]pyrrolidin-3-yl N-{2-[(2S)-pyrrolidin-2-yl]ethyl}carbamate] | < 10 µM
< 10 µM | < 10 µM | – | – | O=C(NCCC(O)C(F)(F)F)O[C@@H]1[C@@H](O)CN[C@@H]1Cc1ccc(-c2cnco2)cc1 (stereo partly drawn) [V192868, (2R,3S,4S)-4-hydroxy-2-{[4-(1,3-oxazol-5-yl)phenyl]methyl}pyrrolidin-3-yl N-(4,4,4-trifluoro-3-hydroxybutyl)carbamate] | < 10 µM
< 10 µM | < 10 µM | – | – | O=C(NCc1cccc(F)c1)O[C@@H]1[C@@H](O)CN[C@@H]1Cc1ccc(-c2ccns2)cc1 [V192324, (2R,3S,4S)-4-hydroxy-2-{[4-(1,2-thiazol-5-yl)phenyl]methyl}pyrrolidin-3-yl N-[(3-fluorophenyl)methyl]carbamate] | < 10 µM
< 10 µM | < 10 µM | – | – | O=C(NCC[C@@H]1CC(F)CN1)O[C@@H]1[C@@H](O)CN[C@@H]1Cc1ccc(-c2cnco2)cc1 (stereo partly drawn) [V192916, (2R,3S,4S)-4-hydroxy-2-{[4-(1,3-oxazol-5-yl)phenyl]methyl}pyrrolidin-3-yl N-{2-[(2R)-4-fluoropyrrolidin-2-yl]ethyl}carbamate] | < 10 µM
< 10 µM | < 10 µM | – | – | O=C(NCc1cccc(F)c1)O[C@@H]1[C@@H](O)CN[C@@H]1Cc1ccc(-c2cn3ccnc3s2)cc1 [V192127, (2R,3S,4S)-4-hydroxy-2-[(4-{imidazo[2,1-b][1,3]thiazol-2-yl}phenyl)methyl]pyrrolidin-3-yl N-[(3-fluorophenyl)methyl]carbamate] | < 10 µM
< 10 µM | < 10 µM | – | – | O=C(NCc1cccc(F)c1)O[C@@H]1[C@@H](O)CN[C@@H]1Cc1ccc(-c2ccc3nonc3c2)cc1 [V192385, (2R,3S,4S)-2-{[4-(2,1,3-benzoxadiazol-5-yl)phenyl]methyl}-4-hydroxypyrrolidin-3-yl N-[(3-fluorophenyl)methyl]carbamate] | < 10 µM
< 10 µM | < 10 µM | – | – | O=C(NCC[C@@H]1CCCN1)O[C@@H]1[C@@H](O)CN[C@@H]1Cc1ccc(C(F)F)cc1 [V192893, (2R,3S,4S)-2-(4-(difluoromethyl)benzyl)-4-hydroxypyrrolidin-3-yl (2-((S)-pyrrolidin-2-yl)ethyl)carbamate] | < 10 µM
